Reference: US9539316B2, “Blood stage malaria vaccine” (priority 2011, dated 2017)

Assays:
P. chabaudi [1] = type: in vivo, A/J mice; conditions: for protection against homologous challenge: 3 doses of 10^6 pRBC (ring stages) i.v. 2 weeks apart, compound 2 μM, 40 minutes, 37° C., challenge 10^5 P. chabaudi (FIG. 7A)
P. chabaudi [2] = conditions: 500 μL blood of mice immunized with 10^7 centanamycin (2 μM or 200 nM) attenuated pRBC taken at day 42 post-innoculation, transferred to naïve reporter mice
P. vinckei = type: in vivo, A/J mice; conditions: for protection against heterologous challenge: 3 doses of 10^6 P. chabaudi pRBC (ring stages) i.v. 2 weeks apart, compound 2 μM, 40 minutes, 37° C., challenge 10^4 P. vinckei (FIG. 7B)

Compound	parasitaemia by day 11 post-challenge (P. chabaudi [1]; 3 doses of 10^4, 10^5 or 10^6 pRBC, each group, centanamycin 2 μM (FIG. 4))	protection against homologous challenge (P. chabaudi [1])	parasitaemia compared between dose groups, e.g. at day 9 post-challenge (P. chabaudi [1]; 3 doses of 10^6 pRBC versus 10^4 and 10^5, centanamycin 2 μM (FIG. 4))	vaccination efficacy, 200 nM attenuation (P. chabaudi [1]; 3 doses or a single dose of 10^4 P. chabaudi pRBC treated with 200 nM centanamycin (FIG. 3))	vaccine efficacy, 3 doses (P. chabaudi [1]; centanamycin attenuated P. chabaudi pRBC, 3 doses of vaccine)	clinical score data (P. chabaudi [1]; immunization with 10^6 centanamycin-treated parasites and challenge (FIG. 6))	immunity to virulent challenge (parasitemia) (P. chabaudi [1]; pRBC treated in vitro with 2 μM centanamycin, 5 doses i.v. 1 week apart, 10^4 parasites each, challenge 10^5 homologous WT pRBC)	protection, single dose (P. chabaudi [1]; single dose of 10^4 pRBC, centanamycin 2 μM, challenge 10^5 pRBC 35 days after vaccination (FIG. 2))	parasitaemia at day 8 and 9 post-challenge versus 2 μM attenuated parasites (P. chabaudi [1]; single dose of 10^7 pRBC attenuated using 200 nM centanamycin (FIG. 5))	recovery by day 13 post-innoculation (P. chabaudi [1]; single dose of 10^7 pRBC attenuated using 200 nM centanamycin, compared with 2 μM (FIG. 5))	parasites detected by microscopy (P. chabaudi [2])	protection against heterologous challenge (P. vinckei)	peak parasite density (P. vinckei; 1 mouse of the group, P. vinckei challenge)	recovery by day 12 (P. vinckei; P. vinckei challenge, all animals)
COc1cc2cc(C(=O)Nc3cc(N)c4ccccc4c3CCCl)[nH]c2c(OC)c1OC [centanamycin]	little or no parasitaemia	lower	lowest	effectively vaccinated	work effectively	protected not only from death and high parasitemia but also from symptoms	induces immunity to virulent challenge	induces protection in most animals	more significant parasitaemia	recovered to the same extent	no parasites detected	–	–	–
COc1cc2cc(C(=O)Nc3cc(O)c4ncc(C)cc4c3CCCl)[nH]c2c(OC)c1OC [AS-VIII-104]	–	–	–	–	–	–	–	–	–	–	–	performed similarly to centanamycin	–	–
COc1cc2cc(C(=O)N3CC(CCl)c4c3cc(O)c3ccoc43)[nH]c2c(OC)c1OC (stereo not shown) [tafuramycin A, seco-iso-cyclopropylfurano[2,3-e]indoline-TMI]	–	near complete protection	–	–	–	–	–	–	–	–	–	very significant protection	approximately 20%	all the animals had fully recovered
